# Test results: patent US20230295096A1, “PYRAZOLE CARBOXAMIDE COMPOUNDS FOR TREATMENT OF HBV” (ASSEMBLY BIOSCIENCES, INC., priority 2020, published 2023)
# Tested on: HBV
# Assay: Viral load production from HepAD38 cells, qPCR of the HBV core sequence in supernatant
# Format: cell-based
# Details: Hepatitis B virus, HePAD38, 120 h, HepAD38 cells, 5 days, HBV DNA in supernatant by qPCR; Table 1 ranges; read-out: Activity (viral load lowering EC50)
# Procedure, shortened: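 EC50 and CC50 come from four-parameter logistic fits of supernatant HBV core DNA (TaqMan qPCR, DNA standards, compared with DMSO wells) and of CellTiter-Glo luminescence.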
row,Compound,EC50
1,"COC(=O)C12CCC(C(=O)NCC3CC4CC(c5nn(C)c(N)c5C(=O)Nc5ccc(F)c(Cl)c5)CC4C3)(CC1)CC2 (centres unmarked) [Example 77, Methyl 4-(((5-(5-amino-4-((3-chloro-4-fluorophenyl)carbamoyl)-1-methyl-1H-pyrazol-3-yl)octahydropentalen-2-yl)methyl)carbamoyl)bicyclo[2.2.2]octane-1-carboxylate]",50 to 500 nM
2,"Cn1nc(C2CC3CC(CNC(=O)C45CCN(CC4)CC5)CC3C2)c(C(=O)Nc2ccc(F)c(Cl)c2)c1N (centres unmarked) [Example 78, N-((5-(5-Amino-4-((3-chloro-4-fluorophenyl)carbamoyl)-1-methyl-1H-pyrazol-3-yl)octahydropentalen-2-yl)methyl)quinuclidine-4-carboxamide]",50 to 500 nM
3,"Cn1nc(C2CC3CC(CNC(=O)C(C)(C)C4CCNCC4)CC3C2)c(C(=O)Nc2ccc(F)c(Cl)c2)c1N (centres unmarked) [Example 79, 5-Amino-N-(3-chloro-4-fluorophenyl)-1-methyl-3-(5-((2-methyl-2-(piperidin-4-yl)propanamido)methyl)octahydropentalen-2-yl)-1H-pyrazole-4-carboxamide]",50 to 500 nM
4,"Cn1nc(C2CC3CC(CNC(=O)C4CCNC(=O)C4)CC3C2)c(C(=O)Nc2ccc(F)c(Cl)c2)c1N (centres unmarked) [Example 80, N-((5-(5-Amino-4-((3-chloro-4-fluorophenyl)carbamoyl)-1-methyl-1H-pyrazol-3-yl)octahydropentalen-2-yl)methyl)-2-oxopiperidine-4-carboxamide]",50 to 500 nM
5,"Cn1nc(C2CC3CC(CNC(=O)CCCCCN)CC3C2)c(C(=O)Nc2ccc(F)c(Cl)c2)c1N (centres unmarked) [Example 81, 5-Amino-3-(5-((6-aminohexanamido)methyl)octahydropentalen-2-yl)-N-(3-chloro-4-fluorophenyl)-1-methyl-1H-pyrazole-4-carboxamide]",50 to 500 nM
6,"Cn1nc(C2CC3CC(CNC(=O)COCCOCCN)CC3C2)c(C(=O)Nc2ccc(F)c(Cl)c2)c1N (centres unmarked) [Example 82, 5-Amino-3-(5-((2-(2-(2-aminoethoxy)ethoxy)acetamido)methyl)octahydropentalen-2-yl)-N-(3-chloro-4-fluorophenyl)-1-methyl-1H-pyrazole-4-carboxamide]",50 to 500 nM
7,"CNS(=O)(=O)NCC1CC2CC(c3nn(C)c(N)c3C(=O)Nc3ccc(F)c(Cl)c3)CC2C1 (centres unmarked) [Example 83, 5-Amino-N-(3-chloro-4-fluorophenyl)-1-methyl-3-(5-(((N-methylsulfamoyl)amino)methyl)octahydropentalen-2-yl)-1H-pyrazole-4-carboxamide]",< 10 nM
8,"Cn1nc(C2CC3CC(CNS(=O)(=O)c4ccc(OC(F)(F)F)cc4)CC3C2)c(C(=O)Nc2ccc(F)c(Cl)c2)c1N (centres unmarked) [Example 84, 5-Amino-N-(3-chloro-4-fluorophenyl)-1-methyl-3-(5-(((4-(trifluoromethoxy)phenyl)sulfonamido)methyl)octahydropentalen-2-yl)-1H-pyrazole-4-carboxamide]",50 to 500 nM
9,"Cn1nc(C2CC3CC(CNS(=O)(=O)c4ccc(F)cc4F)CC3C2)c(C(=O)Nc2ccc(F)c(Cl)c2)c1N (centres unmarked) [Example 85, 5-Amino-N-(3-chloro-4-fluorophenyl)-3-(5-(((2,4-difluorophenyl)sulfonamido)methyl)octahydropentalen-2-yl)-1-methyl-1H-pyrazole-4-carboxamide]",< 10 nM
10,"Cn1nc(C2CC3CC(CNS(=O)(=O)c4ccc(Cl)nc4)CC3C2)c(C(=O)Nc2ccc(F)c(Cl)c2)c1N (centres unmarked) [Example 86, 5-Amino-N-(3-chloro-4-fluorophenyl)-3-(5-(((6-chloropyridine)-3-sulfonamido)methyl)octahydropentalen-2-yl)-1-methyl-1H-pyrazole-4-carboxamide]",< 10 nM
11,"CCS(=O)(=O)NCC1CC2CC(c3nn(C)c(N)c3C(=O)Nc3ccc(F)c(Cl)c3)CC2C1 (centres unmarked) [Example 87, 5-Amino-N-(3-chloro-4-fluorophenyl)-3-(5-(ethylsulfonamidomethyl)octahydropentalen-2-yl)-1-methyl-1H-pyrazole-4-carboxamide]",< 10 nM
12,"Cn1nc(C2CC3CC(CNS(C)(=O)=O)CC3C2)c(C(=O)Nc2ccc(F)c(Cl)c2)c1N (centres unmarked) [Example 88, 5-Amino-N-(3-chloro-4-fluorophenyl)-1-methyl-3-(5-(methylsulfonamidomethyl)octahydropentalen-2-yl)-1H-pyrazole-4-carboxamide]",< 10 nM
13,"CCCS(=O)(=O)NCC1CC2CC(c3nn(C)c(N)c3C(=O)Nc3ccc(F)c(Cl)c3)CC2C1 (centres unmarked) [Example 89, 5-Amino-N-(3-chloro-4-fluorophenyl)-1-methyl-3-(5-(propylsulfonamidomethyl)octahydropentalen-2-yl)-1H-pyrazole-4-carboxamide]",< 10 nM
14,"CC(C)S(=O)(=O)NCC1CC2CC(c3nn(C)c(N)c3C(=O)Nc3ccc(F)c(Cl)c3)CC2C1 (centres unmarked) [Example 90, 5-Amino-N-(3-chloro-4-fluorophenyl)-1-methyl-3-(5-(((1-methylethyl)sulfonamido)methyl)octahydropentalen-2-yl)-1H-pyrazole-4-carboxamide]",< 10 nM
15,"Cn1nc(C2CC3CC(CNS(=O)(=O)C4CCC4)CC3C2)c(C(=O)Nc2ccc(F)c(Cl)c2)c1N (centres unmarked) [Example 91, 5-Amino-N-(3-chloro-4-fluorophenyl)-3-(5-(cyclobutanesulfonamidomethyl)octahydropentalen-2-yl)-1-methyl-1H-pyrazole-4-carboxamide]",10 to 50 nM
16,"Cn1nc(C2CC3CC(CNS(=O)(=O)C4CCCC4)CC3C2)c(C(=O)Nc2ccc(F)c(Cl)c2)c1N (centres unmarked) [Example 92, 5-Amino-N-(3-chloro-4-fluorophenyl)-3-(5-(cyclopentanesulfonamidomethyl)octahydropentalen-2-yl)-1-methyl-1H-pyrazole-4-carboxamide]",10 to 50 nM
17,"Cn1nc(C2CC3CC(CNS(=O)(=O)C(F)(F)F)CC3C2)c(C(=O)Nc2ccc(F)c(Cl)c2)c1N (centres unmarked) [Example 93, 5-Amino-N-(3-chloro-4-fluorophenyl)-1-methyl-3-(5-(((trifluoromethyl)sulfonamido)methyl)octahydropentalen-2-yl)-1H-pyrazole-4-carboxamide]",10 to 50 nM
18,"Cn1nc(C2CC3CC(CNS(=O)(=O)C4CC4)CC3C2)c(C(=O)Nc2ccc(F)c(Cl)c2)c1N (centres unmarked) [Example 94, 5-Amino-N-(3-chloro-4-fluorophenyl)-3-(5-(cyclopropanesulfonamidomethyl)octahydropentalen-2-yl)-1-methyl-1H-pyrazole-4-carboxamide]",< 10 nM
19,"Cn1nc(C2CC3CC(CNS(=O)(=O)C4(C)CC4)CC3C2)c(C(=O)Nc2ccc(F)c(Cl)c2)c1N (stereo not drawn) [Example 95, 5-Amino-N-(3-chloro-4-fluorophenyl)-1-methyl-3-(5-(((1-methylcyclopropane)-l-sulfonamido)methyl)octahydropentalen-2-yl)-1H-pyrazole-4-carboxamide]",< 10 nM
20,"Cn1nc(C2CC3CC(CNS(=O)(=O)C4CCOCC4)CC3C2)c(C(=O)Nc2ccc(F)c(Cl)c2)c1N (centres unmarked) [Example 96, 5-Amino-N-(3-chloro-4-fluorophenyl)-1-methyl-3-(5-(((tetrahydro-2H-pyran)-4-sulfonamido)methyl)octahydropentalen-2-yl)-1H-pyrazole-4-carboxamide]",< 10 nM
